Results published in ChEMBL document CHEMBL1156187, “Discovery of a selective small-molecule melanocortin-4 receptor agonist with efficacy in a pilot study of sexual dysfunction in humans” (J Med Chem, 2010).

What was measured:
Melanocortin receptor 3 [1] = biological target: T1, Melanocortin receptor 3 (Homo sapiens, UniProt P41968); assay: Agonist activity at human recombinant MC3 receptor expressed in CHO cells assessed as cAMP accumulation by enzyme fragment complementation assay relative to […]; assay type: functional, cell-based
[2] = biological target: T2, Melanocyte-stimulating hormone receptor (Homo sapiens, UniProt Q01726); assay: Agonist activity at human recombinant MC1 receptor expressed in HEK293 cells assessed as cAMP accumulation by enzyme fragment complementation assay relative to alpha melanocyte-stimulating hormone; assay type: functional, cell-based
Target sequence in this assay (Q01726 whole entry, looked up, the tested form may be a part): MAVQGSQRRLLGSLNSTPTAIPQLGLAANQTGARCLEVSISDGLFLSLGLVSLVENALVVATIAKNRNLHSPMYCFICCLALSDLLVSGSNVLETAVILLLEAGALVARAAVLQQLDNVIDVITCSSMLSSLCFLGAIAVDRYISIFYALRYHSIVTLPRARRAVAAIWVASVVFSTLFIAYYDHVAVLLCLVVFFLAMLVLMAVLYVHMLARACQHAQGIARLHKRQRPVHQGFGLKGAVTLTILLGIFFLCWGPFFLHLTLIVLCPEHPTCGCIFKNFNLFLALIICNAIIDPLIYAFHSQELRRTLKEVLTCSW

Melanocortin receptor 5 [3] = biological target: T3, Melanocortin receptor 5 (Homo sapiens, UniProt P33032); assay: Agonist activity at human recombinant MC5 receptor expressed in HEK293 cells assessed as cAMP accumulation by beta lactamase reporter gene assay relative to alpha melanocyte-stimulating hormone; assay type: functional, cell-based
Melanocortin receptor 4 [4] = biological target: T4, Melanocortin receptor 4 (Homo sapiens, UniProt P32245); assay: Agonist activity at human recombinant MC4 receptor expressed in CHO cells by cAMP responsive beta lactamase reporter gene assay; assay type: functional, cell-based
Melanocortin receptor 3 [5] = biological target: T1, Melanocortin receptor 3; assay: Agonist activity at human recombinant MC3 receptor expressed in CHO cells assessed as cAMP accumulation by enzyme fragment complementation assay; assay type: functional, cell-based
[6] = biological target: T2, Melanocyte-stimulating hormone receptor; assay: Agonist activity at human recombinant MC1 receptor expressed in HEK293 cells assessed as cAMP accumulation by enzyme fragment complementation assay; assay type: functional, cell-based
Target sequence in this assay (Q01726 whole entry, the tested form may be a part): as the sequence (Q01726 whole entry, looked up, the tested form may be a part) above

Melanocortin receptor 5 [7] = biological target: T3, Melanocortin receptor 5; assay: Agonist activity at human recombinant MC5 receptor expressed in HEK293 cells assessed as cAMP accumulation by beta lactamase reporter gene assay; assay type: functional, cell-based
[8] = biological target: Voltage-gated inwardly rectifying potassium channel KCNH2 (Homo sapiens, UniProt Q12809); assay: Displacement of [3H]dofetilide from human ERG expressed in CHO cells by patch clamp method
Melanocortin receptor 4 [9] = biological target: T4, Melanocortin receptor 4; assay: Displacement of [125I]-MT-II from human recombinant MC4 receptor expressed in CHO cells by scintillation counting
[10] = Lipophilicity, log D at pH 7.4; assay type: physicochemical; details: buffer
[11] = Intrinsic clearance in human liver microsome measured per mg of protein; assay type: ADME; details: liver microsomes

T1 sequence (P41968 whole entry, the tested form may be a part): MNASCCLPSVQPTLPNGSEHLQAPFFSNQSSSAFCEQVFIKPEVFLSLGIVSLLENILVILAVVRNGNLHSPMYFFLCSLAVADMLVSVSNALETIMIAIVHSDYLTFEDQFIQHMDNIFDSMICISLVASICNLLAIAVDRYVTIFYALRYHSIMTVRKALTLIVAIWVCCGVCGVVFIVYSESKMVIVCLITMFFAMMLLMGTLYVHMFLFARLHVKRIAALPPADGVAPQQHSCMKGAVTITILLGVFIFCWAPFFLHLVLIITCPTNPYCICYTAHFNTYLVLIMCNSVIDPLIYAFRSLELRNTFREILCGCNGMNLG
T4 sequence (P32245 whole entry, the tested form may be a part): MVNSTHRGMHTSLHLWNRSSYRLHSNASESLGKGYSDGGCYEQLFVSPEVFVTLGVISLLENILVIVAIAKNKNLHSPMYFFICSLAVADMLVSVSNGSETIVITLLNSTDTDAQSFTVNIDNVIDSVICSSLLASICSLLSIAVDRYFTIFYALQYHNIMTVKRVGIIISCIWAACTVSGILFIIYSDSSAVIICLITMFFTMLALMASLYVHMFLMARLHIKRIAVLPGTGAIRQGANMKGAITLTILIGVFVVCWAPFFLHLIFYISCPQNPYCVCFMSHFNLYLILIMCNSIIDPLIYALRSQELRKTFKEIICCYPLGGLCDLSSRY
Sequence of Voltage-gated inwardly rectifying potassium channel KCNH2 (Q12809 whole entry): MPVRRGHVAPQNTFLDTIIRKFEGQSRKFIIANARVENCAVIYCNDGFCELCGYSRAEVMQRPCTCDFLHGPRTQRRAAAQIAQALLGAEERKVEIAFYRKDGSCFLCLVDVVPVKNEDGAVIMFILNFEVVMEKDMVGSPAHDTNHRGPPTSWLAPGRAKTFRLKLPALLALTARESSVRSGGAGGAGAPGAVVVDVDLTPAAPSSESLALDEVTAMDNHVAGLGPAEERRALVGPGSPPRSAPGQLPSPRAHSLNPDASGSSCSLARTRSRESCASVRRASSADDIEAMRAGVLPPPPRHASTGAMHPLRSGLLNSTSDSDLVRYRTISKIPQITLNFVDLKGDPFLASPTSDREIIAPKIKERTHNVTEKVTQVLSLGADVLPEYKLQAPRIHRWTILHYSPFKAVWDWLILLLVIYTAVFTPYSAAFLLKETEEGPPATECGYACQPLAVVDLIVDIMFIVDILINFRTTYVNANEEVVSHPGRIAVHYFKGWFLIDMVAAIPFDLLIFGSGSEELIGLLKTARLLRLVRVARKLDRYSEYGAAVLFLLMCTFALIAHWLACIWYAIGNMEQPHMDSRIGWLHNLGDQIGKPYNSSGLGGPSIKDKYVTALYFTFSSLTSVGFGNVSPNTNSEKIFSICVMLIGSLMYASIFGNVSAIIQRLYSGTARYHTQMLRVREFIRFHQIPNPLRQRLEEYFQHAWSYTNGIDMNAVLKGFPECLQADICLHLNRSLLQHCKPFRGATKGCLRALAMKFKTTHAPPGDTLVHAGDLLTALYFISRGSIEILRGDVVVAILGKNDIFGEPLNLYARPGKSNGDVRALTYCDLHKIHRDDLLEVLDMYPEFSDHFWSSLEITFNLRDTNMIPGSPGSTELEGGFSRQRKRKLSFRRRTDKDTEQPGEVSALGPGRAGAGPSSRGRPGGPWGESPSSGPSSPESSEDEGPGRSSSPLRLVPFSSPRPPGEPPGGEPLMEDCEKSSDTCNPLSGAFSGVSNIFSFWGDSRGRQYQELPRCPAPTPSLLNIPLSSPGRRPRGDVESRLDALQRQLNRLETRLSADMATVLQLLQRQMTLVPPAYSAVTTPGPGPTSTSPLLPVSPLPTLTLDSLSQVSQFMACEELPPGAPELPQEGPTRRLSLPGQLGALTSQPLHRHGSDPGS
T3 sequence (P33032 whole entry): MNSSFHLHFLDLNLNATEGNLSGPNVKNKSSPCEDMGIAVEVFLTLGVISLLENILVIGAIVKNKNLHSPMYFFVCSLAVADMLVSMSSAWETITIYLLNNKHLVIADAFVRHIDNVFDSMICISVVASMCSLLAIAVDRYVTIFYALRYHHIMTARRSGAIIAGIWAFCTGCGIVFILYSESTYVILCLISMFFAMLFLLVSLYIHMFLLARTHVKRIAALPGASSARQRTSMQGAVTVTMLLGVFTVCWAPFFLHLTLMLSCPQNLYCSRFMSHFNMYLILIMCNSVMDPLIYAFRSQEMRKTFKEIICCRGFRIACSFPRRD

## CCCC[C@H](NC(C)=O)C(=O)N[C@H]1CC(=O)NCCCC[C@@H](C(N)=O)NC(=O)[C@H](Cc2c[nH]c3ccccc23)NC(=O)[C@H](CCCNC(=N)N)NC(=O)C(Cc2ccccc2)NC(=O)[C@H](CC2=NC=NC2)NC1=O (single isomer, unassigned)
Melanocortin receptor 3 [1]
  Emax: 87%
[2]
  Emax: 98%
Melanocortin receptor 5 [3]
  Emax: 61%

## C[C@@H]1CN(C(=O)[C@@H]2CNC[C@H]2c2ccc(F)cc2F)C[C@H](C)[C@@]1(O)c1ccccc1
Melanocortin receptor 4 [4]
  EC50: 0.462 µM
Melanocortin receptor 3 [5]
  EC50: > 25.2 µM
[6]
  EC50: > 8.74 µM
Melanocortin receptor 5 [7]
  EC50: > 20 µM
[8]
  Ki: 6.65 µM
Melanocortin receptor 4 [9]
  Ki: 0.264 µM

## C[C@@H]1CN(C(=O)[C@H]2CN(c3cccnc3)C[C@@H]2c2ccc(F)cc2F)C[C@H](C)[C@@]1(O)c1ccccc1
Melanocortin receptor 4 [4]
  EC50: 0.005 µM
Melanocortin receptor 3 [1]
  Emax: 90%
Melanocortin receptor 3 [5]
  EC50: 0.065 µM
[6]
  EC50: > 8.22 µM
[8]
  Ki: 5.07 µM
Melanocortin receptor 4 [9]
  Ki: 0.05 µM

## C[C@@H]1CN(C(=O)[C@@H]2CN(C(C)(C)C)C[C@H]2c2ccc(F)cc2F)C[C@H](C)[C@@]1(O)c1c(F)cccc1F
Melanocortin receptor 4 [4]
  EC50: 0.045 µM
Melanocortin receptor 3 [1]
  Emax: 76%
Melanocortin receptor 3 [5]
  EC50: 4.57 µM
[6]
  EC50: > 5.01 µM
Melanocortin receptor 5 [7]
  EC50: > 5.81 µM
[8]
  Ki: 5 µM
Melanocortin receptor 4 [9]
  Ki: 0.099 µM

## C[C@@H]1CN(C(=O)[C@H]2CN(C3CC3)C[C@@H]2c2ccc(F)cc2F)C[C@H](C)[C@@]1(O)c1ccccc1
Melanocortin receptor 4 [4]
  EC50: 0.055 µM
Melanocortin receptor 3 [5]
  EC50: > 33.3 µM
[6]
  EC50: > 4.91 µM
[8]
  Ki: > 9.17 µM
[10]
  logD: > 4
[11]
  microsomal CLint: 342 µL/min/mg
Melanocortin receptor 4 [9]
  Ki: 0.29 µM

## C[C@@H]1CN(C(=O)[C@@H]2CN(C(C)(C)C)C[C@H]2c2ccc(F)cc2F)C[C@H](C)[C@@]1(O)c1ccc(Cl)cc1
Melanocortin receptor 4 [4]
  EC50: 0.03 µM
Melanocortin receptor 3 [1]
  Emax: 75%
Melanocortin receptor 3 [5]
  EC50: 3.68 µM
[6]
  EC50: > 5.88 µM
Melanocortin receptor 5 [7]
  EC50: 5.19 µM
Melanocortin receptor 5 [3]
  Emax: 107%
[8]
  Ki: > 10 µM
[10]
  logD: 3.9
[11]
  microsomal CLint: 16 µL/min/mg
Melanocortin receptor 4 [9]
  Ki: 0.048 µM
